Assay results reported in patent US9040713B2, “Methods of managing blood sugar levels and compositions related thereto” (EMORY UNIVERSITY, priority 2010, dated 2015).

Columns and labels:
p85α−/− MEF cells = assay: [3H] 2-deoxyglucose transport in p85α knockout MEF cells; type: cell-based, mouse; conditions: insulin 100 nM 15 min or compound 5 μM 30 min
Experimental: Insulin signaling in the cell lysates were tested by immunoblotting. (B) DDN stimulates glucose uptake. […] [3H]2-deoxyglucose was then added, and the cells were further incubated for 10 min. [3H]2-deoxyglucose uptake by adipocytes was measured by scintillation counting (*: P<0.05 **: P<0.01 vs control, Student's t-test, n=3). (C) DDN synergizes insulin's signaling. […] Cell lysates were then prepared for Western blot using specific antibodies as indicated. […] 3H-2-deoxyglucose was then added, and the cells were further incubated for 10 min. 3H-2-deoxyglucose uptake by adipocytes was measured by scintillation counting (*: P<0.05; **: P<0.01, Student's t-test, n=3). (E) IR is necessary for DDN to induce ERK phosphorylation. […] Cell lysates were analyzed by Western blot. […] The uptake of 3H-2-deoxyglucose was monitored by liquid scintillation counting (*: P<0.05; **: P<0.01 vs control, Student's t-test, n=3).
(A) 4524-E7 activates IR phosphorylation and its downstream signaling in 3T3-L1 adipocytes. […] The amount of [3H]2-deoxyglucose taken by adipocytes was measured. […] Results were normalized to DMSO-treated cells and expressed as mean±S.E.M. (*: P<0.05; **:P<0.01, Student's t-test, n=3). […] Cells lysates were collected and analyzed by Western blot. […] 2-deoxyglucose was monitored by liquid scintillation counter. Results were expressed as mean±S.E.M. (*: P<0.05; **:P<0.01, Student's t-test, n=3). […]

TrkB = molecular target: T1, TrkB (Homo sapiens, UniProt Q16620); assay: TrkB phosphorylation in transfected HEK293 cells (Western blot); type: cell-based; conditions: 5 μM
T1 construct: expressed in transfected cells; host or cells: HEK293
T1 sequence (Q16620 32-822, species assumed): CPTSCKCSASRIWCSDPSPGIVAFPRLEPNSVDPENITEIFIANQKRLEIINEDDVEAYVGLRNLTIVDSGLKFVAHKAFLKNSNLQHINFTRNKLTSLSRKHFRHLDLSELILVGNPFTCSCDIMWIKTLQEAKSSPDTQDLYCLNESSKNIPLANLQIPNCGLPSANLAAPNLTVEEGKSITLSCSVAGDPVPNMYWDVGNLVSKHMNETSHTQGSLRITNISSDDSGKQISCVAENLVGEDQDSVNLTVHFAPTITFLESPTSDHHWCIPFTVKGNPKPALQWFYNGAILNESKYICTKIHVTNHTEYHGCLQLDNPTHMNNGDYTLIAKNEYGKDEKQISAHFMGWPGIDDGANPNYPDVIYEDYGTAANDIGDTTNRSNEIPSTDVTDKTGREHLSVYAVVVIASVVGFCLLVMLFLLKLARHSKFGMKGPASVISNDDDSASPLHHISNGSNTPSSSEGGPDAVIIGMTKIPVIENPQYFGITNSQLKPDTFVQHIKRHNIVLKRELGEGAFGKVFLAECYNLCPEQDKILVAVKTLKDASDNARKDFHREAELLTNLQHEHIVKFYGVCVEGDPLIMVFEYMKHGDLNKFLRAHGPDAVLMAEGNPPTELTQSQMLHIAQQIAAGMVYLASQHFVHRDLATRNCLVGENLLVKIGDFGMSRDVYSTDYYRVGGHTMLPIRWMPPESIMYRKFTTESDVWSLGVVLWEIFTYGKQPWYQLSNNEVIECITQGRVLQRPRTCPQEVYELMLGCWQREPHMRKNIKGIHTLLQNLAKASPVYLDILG

GST-EGFRTK = molecular target: T2, GST-EGFRTK (Homo sapiens, UniProt P00533); assay: In vitro kinase assay (histone H2B phosphorylation); type: biochemical; conditions: different concentrations of 4524-E7
T2 construct: histone phosphorylation by recombinant IGFR or EGFR tyrosine kinase
T2 sequence (P00533 712-979 limits assumed): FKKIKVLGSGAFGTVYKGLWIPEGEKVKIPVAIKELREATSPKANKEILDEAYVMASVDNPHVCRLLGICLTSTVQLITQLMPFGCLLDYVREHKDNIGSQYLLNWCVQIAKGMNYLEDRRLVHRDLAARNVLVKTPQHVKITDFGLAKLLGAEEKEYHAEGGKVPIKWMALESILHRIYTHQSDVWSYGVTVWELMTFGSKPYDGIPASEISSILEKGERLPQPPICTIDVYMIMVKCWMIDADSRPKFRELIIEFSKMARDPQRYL
Experimental: (§1) Parental CHO cells were used as a negative control (Bottom panel). The fluorescence-labeled cells were analyzed on flow cytometry. (B) 4524-E7 protects IRTK from proteolysis. GST-IRTK was subjected to limited trypsin or chymotrypsin digestion in the presence of 4524-E7 (50 μM), ATPyS (5 μM) or both at 37° C. for 5 min. The reaction mixture was resolved by SDS-PAGE, followed by silver staining Cleaved fragments were asterisked. (C) 4524-E7 increases IRTK activity in vitro. Recombinant GST-IRTK, GST-IGFRTK, and GST-EGFRTK were incubated with different concentrations of 4524-E7 or 10 μM 2—NH2-NQ and the kinase activity was examined by monitoring the phosphorylation of histone H2B. (E) In vitro kinase activity of various IRTK/IGF-1R kinase hybrids. The GFP-tagged kinases were expressed in HEK293, immunoprecipitated and incubated with different concentrations of 4524-E7 as indicated. […] Expressions of the kinases were also verified (lower panel).
(§2) To evaluate if 4524-E7 directly binds to the IR kinase domain, a partial proteolysis assay was performed with recombinant IRTK domain using trypsin or chymotrypsin, which was used before to characterize the interaction between IR and its small molecular ligand DAQ B1. Recombinant GST-tagged IRTK with either DMSO, 50 μM 4524-E7 or ATP-γ-S, were incubated and followed by limited trypsin or chymotrypsin digestion. […]

GST-IGFRTK = molecular target: T3, GST-IGFRTK (Homo sapiens, UniProt P08069); assay: as above; type: biochemical; conditions: different concentrations of 4524-E7
T3 construct: histone phosphorylation by recombinant IGFR or EGFR tyrosine kinase
T3 sequence (P08069 999-1274 limits assumed): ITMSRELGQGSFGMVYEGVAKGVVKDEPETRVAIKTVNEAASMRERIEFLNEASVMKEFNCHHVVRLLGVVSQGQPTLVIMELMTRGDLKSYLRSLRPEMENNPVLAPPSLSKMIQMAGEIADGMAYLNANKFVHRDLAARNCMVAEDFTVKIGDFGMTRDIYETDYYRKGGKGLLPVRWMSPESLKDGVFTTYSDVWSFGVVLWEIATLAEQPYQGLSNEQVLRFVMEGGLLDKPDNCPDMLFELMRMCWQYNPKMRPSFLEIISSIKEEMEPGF
Experimental: as §1, §2

ob/ob mice = assay: Plasma insulin in ob/ob mice; type: in vivo, mouse; conditions: single oral doses
Experimental: After a 12 h fasting, ob/ob mice were bled from the tail vein for a baseline (time −60 minutes) measurement. Then animals were orally administered 5 mg/kg compound in 0.5% methylcellulose. One hour after the drug administration, glucose (2 g/kg) was administrated intraperitoneally. Blood glucose levels were measured 0, 30, 60, 90, 120, and 180 min after administration of glucose. The blood was collected in tubes, kept at 4° C. overnight, and plasma was prepared by centrifugation (2,000 g, 20 min). Plasma insulin was measured by enzyme-linked immunosorbent assay with a rat insulin kit (Crystal Chem. Inc., USA). Insulin was quantified using the insulin standard curve.

| Molecule | [3H]-2-deoxyglucose uptake (p85α−/− MEF cells) | TrkB activation (TrkB) | EGFR tyrosine kinase activity (histone phosphorylation) (GST-EGFRTK) | IGFR tyrosine kinase activity (histone phosphorylation) (GST-IGFRTK) | plasma insulin levels (ob/ob mice) |
| --- | --- | --- | --- | --- | --- |
| O=C1c2ccccc2C(=O)C2SC(Nc3ccc(Cl)cc3)=NC12 (stereo not drawn) [4524-E7, 2-((4-chlorophenyl)amino)naphtho[2,3-d]thiazole-4,9(3aH,9aH)-dione] | neither insulin nor 4524-E7 was able to induce glucose uptake | not any other RTKs | no effect | no effect |  |
| CC(=O)Oc1ccc(OC(C)=O)c2c1C(=O)C(Cl)=C(Cl)C2=O [DDN, 5,8-diacetyloxy-2,3-dichloro-1,4-naphthoquinone] |  |  |  |  | no significant effect on plasma insulin levels |
| insulin: insulin, used as positive control | neither insulin nor 4524-E7 was able to induce glucose uptake |  |  |  |  |
